The record followed here is patent US20170007610A1, “NOVEL HETEROBICYCLIC COMPOUNDS AS KAPPA OPIOID AGONISTS” (priority 2014, published 2017).

In general, IC50 refers to the concentration that inhibits the measured activity by half. Usually EC50 stands for the midpoint of the concentration-response curve. In general, ED50 refers to the dose that gives a 50% effect, or the effect in half of the subjects.

The target in series [1] is T1, kappa opioid receptor (Mus musculus, UniProt P33534).
T1 construct: from tissue; host or cells: mouse vas deferens (male Swiss Albino mice)
The series is described as follows: Ex-vivo KOR agonistic activity, electrically stimulated mouse vas deferens (MVD) model.

Series [2] addresses T2, kappa opioid receptor (Homo sapiens, UniProt P41145).
T2 construct: grown in complete Ham's F-12 medium
The series is described as follows: Invitro KOR agonistic activity, cAMP based functional assay. The series is classed as cell-based.

Series [3] deals with ICR mice. The series is described as follows: Acetic acid-induced writhing model. The conditions noted are these: acetic acid induced pain model, oral or i.v. administration, writhes for 15 min; for ED50: Mus musculus, 0.25 h, read-out: In-vivo ED50. The series is classed as in vivo. The procedure: (§1) All the animal experiments were carried out in ICR mice, bred in-house. Animals were housed in groups of 6 animals per cage, for a week, in order to habituate them to vivarium conditions (25±4° C., 60-65% relative humidity, 12:12 h light: dark cycle, with lights on at 7.30 am). All the animal experiments were carried out according to the internationally valid guidelines following approval by the ‘Zydus Research Center animal ethical committee’.
Following oral or i.v. administration of test compounds, mice are rested for 5 min before i.p. injection with 10 ml/kg of 0.6% v/v acetic acid in normal saline. […] A writhe is defined as a constriction of the abdominal area, often with extension of the hind legs. Percentage maximum possible effect (MPE) was calculated as below:
% MPE=100−[(No. of writhes in treated mice/No. of writhes in vehicle treated mice)]×100
ED50 dose is determined using GraphPad Prism.
(In writhing tests, fewer writhes than in controls are read as antinociception.)

In series [4] the test system is ICR mice. The series is described as follows: Assessment of CNS effects (spontaneous locomotion, sedation, catalepsy), threshold dose. The series is classed as in vivo. To be noted: lowest dose which shows pharmacodynamic effect (locomotion, sedation, catalepsy), oral or i.v. The procedure: as §1
Assessment of CNS Effects of Test Compounds
Test compounds were dissolved in normal saline injected by oral or i.v., routes in ICR mice tail vein. […] The dose is scaled down or up if pharmacodynamic effect is present or absent respectively.

[5] abbreviates: electrically stimulated mouse vas deferens preparation, cumulative dosing, read-out: Ex-vivo IC50.
Setting [6] is: cAMP direct ELISA, forskolin 20 μM, agonist 20 minutes, read-out: In-vitro EC50.

Like-named read-outs stand apart in the source and are kept apart here.

T2 sequence (P41145 whole entry): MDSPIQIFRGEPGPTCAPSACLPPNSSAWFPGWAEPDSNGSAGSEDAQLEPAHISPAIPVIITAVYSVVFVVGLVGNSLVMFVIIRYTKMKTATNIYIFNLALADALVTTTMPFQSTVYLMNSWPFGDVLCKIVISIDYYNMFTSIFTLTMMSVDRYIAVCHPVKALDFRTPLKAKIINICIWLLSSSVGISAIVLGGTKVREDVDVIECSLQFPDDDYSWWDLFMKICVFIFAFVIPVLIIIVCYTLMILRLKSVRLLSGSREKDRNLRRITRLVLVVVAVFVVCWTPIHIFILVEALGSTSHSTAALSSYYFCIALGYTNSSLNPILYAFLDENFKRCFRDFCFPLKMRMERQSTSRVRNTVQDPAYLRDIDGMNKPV
T1 sequence (P33534 whole entry): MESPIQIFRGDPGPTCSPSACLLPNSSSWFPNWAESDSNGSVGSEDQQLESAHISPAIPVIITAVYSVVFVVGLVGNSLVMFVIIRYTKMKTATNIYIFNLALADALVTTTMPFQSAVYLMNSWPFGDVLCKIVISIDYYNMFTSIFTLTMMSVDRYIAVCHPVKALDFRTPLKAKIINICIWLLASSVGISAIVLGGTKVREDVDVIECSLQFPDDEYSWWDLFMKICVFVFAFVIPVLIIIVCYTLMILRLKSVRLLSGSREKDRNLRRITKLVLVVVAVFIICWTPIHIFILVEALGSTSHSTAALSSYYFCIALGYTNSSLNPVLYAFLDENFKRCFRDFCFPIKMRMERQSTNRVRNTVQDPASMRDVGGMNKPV

At kappa opioid receptor [1], `CN(C(=O)COc1ccc(NS(C)(=O)=O)c2ncccc12)[C@H](CN1CC[C@H](O)C1)c1cccc(N)c1` [Compound 43, N-((S)-1-(3-aminophenyl)-2-((S)-3-hydroxypyrrolidin-1-yl)ethyl)-N-methyl-2-((8-(methylsulfonamido)quinolin-5-yl)oxy) acetamide] had an IC50 of 1.6 nM. The EC50 on kappa opioid receptor [2] was determined as 0.006 nM. Moreover, in the series on ICR mice [3], the ED50 worked out at 2.1 mg/kg. The “CNS TD” value in the series on ICR mice [4] amounted to 30 mg/kg.
Taken in the same sequence, the figures for `CN(C(=O)COc1ccc(NS(C)(=O)=O)c2cccnc12)[C@H](CN1CC[C@H](O)C1)c1ccccc1` [Compound 6, N-((S)-2-((S)-3-hydroxypyrrolidin-1-yl)-1-phenylethyl)-N-methyl-2-((5-methylsulfonamido)quinolin-8-yloxy)acetamide] were 349 nM, 0.94 nM, 1.1 mg/kg and 30 mg/kg.
For `CN(C(=O)COc1ccc(NS(C)(=O)=O)c2ncccc12)[C@H](CN1CC[C@H](O)C1)c1cccc(NS(C)(=O)=O)c1` [Compound 44], in that order: 5.4 nM, 0.036 nM, 2.3 mg/kg and 10 mg/kg.
The compound `CN1CCCc2c(OCC(=O)N(C)[C@H](CN3CC[C@H](O)C3)c3ccccc3)ccc(NS(C)(=O)=O)c21` [Compound 22, N-((S)-2-((S)-3-hydroxypyrrolidin-1-yl)-1-phenylethyl)-N-methyl-2-((1-methyl-8-(methylsulfonamido)-1,2,3,4-tetrahydroquinolin-5-yl)oxy)acetamide] had an IC50 at kappa opioid receptor [1] of 8.1 nM. Moreover, the EC50 at kappa opioid receptor [2] stood at 0.008 nM. Further, the ED50 in the series on ICR mice [3] stood at 2.5 mg/kg. The “CNS TD” value in the series with ICR mice [4] is 60 mg/kg.
For `CN(C(=O)COc1ccc(NS(C)(=O)=O)c2ncccc12)[C@H](CN1CC[C@H](O)C1)c1cccc(O)c1` [Compound 48, N-((S)-1-(3-hydroxyphenyl)-2-((S)-3-hydroxypyrrolidin-1-yl)ethyl)-N-methyl-2-((8-(methylsulfonamido)quinolin-5-yl)oxy) acetamide], the IC50 on kappa opioid receptor [1] came out at 1.3 nM. This compound also registered an EC50 on kappa opioid receptor [2] of 0.021 nM. The ED50 in the series on ICR mice [3] was found to be 3.1 mg/kg. Moreover, in the series on ICR mice [4], the “CNS TD” value is listed as 30 mg/kg.
With `CN(C(=O)COc1ccc2c(c1)OCO2)[C@H](CN1CC[C@H](O)C1)c1cccc(NS(C)(=O)=O)c1` [Compound 57, 2-(benzo[d][1,3]dioxol-5-yloxy)-N-((S)-2-((S)-3-hydroxypyrrolidin-1-yl)-1-(3-(methylsulfonamido)phenyl)ethyl)-N-methylacetamide], at kappa opioid receptor [1], the half-maximal inhibitory concentration (IC50) amounted to 27 nM. Further, the EC50 on kappa opioid receptor [2] came out at 0.961 nM. For the same compound, the ED50 in the series with ICR mice [3] turned out to be 1.9 mg/kg. The “CNS TD” value in the series on ICR mice [4] turned out to be 60 mg/kg.
For the compound “N-((S)-2-((S)-3-hydroxypyrrolidin-1-yl)-1-phenylethyl)- N-methyl-2-((8-sulfonamido)-1,2,3,4-tetrahydroquinolin- 5-yloxy)acetamide [Compound 37]”, at kappa opioid receptor [1] (setting [5]), the IC50 amounted to 0.3 nM. For the same compound, the EC50 at kappa opioid receptor [2] (setting [6]) is 0.013 nM. Also, the “In-vivo ED50” value with ICR mice [3] was 6.2 mg/kg.
With `CN(C(=O)COc1ccc2c(c1)CCCN2S(C)(=O)=O)[C@H](CN1CC[C@H](O)C1)c1ccccc1` [Compound 20, N-((S)-2-((S)-3-hydroxypyrrolidin-1-yl)-1-phenylethyl)-N-methyl-2-((1-(methylsulfonyl)-1,2,3,4-tetrahydroquinolin-6-yl)oxy)acetamide], the IC50 at kappa opioid receptor [1] was determined as 1740 nM. In addition, a half-maximal effect at kappa opioid receptor [2] (EC50) was put at 2.12 nM. The ED50 in the series on ICR mice [3] was 1.8 mg/kg. The “CNS TD” value in the series on ICR mice [4] stood at 30 mg/kg.
For `CN(C(=O)COc1ccc(NS(=O)(=O)N(C)C)c2c1CCCN2)[C@H](CN1CC[C@H](O)C1)c1ccccc1` [Compound 32, 2-((8-((N,N-dimethylsulfamoyl)amino)-1,2,3,4-tetrahydroquinolin-5-yl)oxy)-N-((S)-2-((S)-3-hydroxypyrrolidin-1-yl)-1-phenylethyl)-N-methylacetamide], in that order: 0.49 nM, 0.013 nM, 4.7 mg/kg and 100 mg/kg.
As to `CN(C(=O)COc1ccc(NS(C)(=O)=O)c2ncccc12)[C@H](CN1CC[C@H](O)C1)c1ccccc1` [Compound 5, N-((S)-2-((S)-3-hydroxypyrrolidin-1-yl)-1-phenylethyl)-N-methyl-2-((8-methylsulfonamido)quinolin-5-yloxy)acetamide], on kappa opioid receptor [1], the IC50 was 5.6 nM. The response at kappa opioid receptor [2] was half-maximal at 0.013 nM (EC50).
Turning to `CN(C(=O)COc1ccc(NS(C)(=O)=O)c2c1CCCN2)[C@H](CN1CC[C@H](O)C1)c1ccccc1` [Compound 15, N-((S)-2-((S)-3-hydroxypyrrolidin-1-yl)-1-phenylethyl)-N-methyl-2-((8-(methylsulfonamido)-1,2,3,4-tetrahydroquinolin-5-yl)oxy)acetamide], the concentration for half-maximal inhibition (IC50) on kappa opioid receptor [1] amounted to 0.9 nM. The compound also registered an EC50 on kappa opioid receptor [2] of 0.003 nM. The ED50 in the series with ICR mice [3] is 0.92 mg/kg. Besides, in the series with ICR mice [4], the “CNS TD” value is given as 10 mg/kg.
Turning to `CN(C(=O)COc1ccc(NS(C)(=O)=O)c2ncccc12)[C@H](CN1CC[C@H](O)C1)c1cccc(OCC(=O)O)c1` [Compound 51], the IC50 at kappa opioid receptor [1] (setting [5]) worked out at 16 nM. The EC50 at kappa opioid receptor [2] (setting [6]) was 0.11 nM.
On to `CN(C(=O)COc1ccc2occc2c1)[C@H](CN1CC[C@H](O)C1)c1ccccc1` [Compound 16], for which, at kappa opioid receptor [1], the IC50 is 4 nM. On kappa opioid receptor [2], this compound returned a 50% effective concentration (EC50) of 0.04 nM.
Taken in the same sequence, the figures for `CN(C(=O)COc1cccc2c1NCC2)[C@H](CN1CC[C@H](O)C1)c1ccccc1` [Compound 29, N-((S)-2-((S)-3-hydroxypyrrolidin-1-yl-)-1-phenylethyl)-2-(indolin-7-yloxy)-N-methylacetamide] were 147 nM and 0.11 nM.
